Results taken from publication PMC5830763, “Discovery of benzothiazolylquinoline conjugates as novel human A3 receptor antagonists: biological evaluations and molecular docking studies” (Royal Society Open Science, 2018).
“And” between values parts separate entries of the source, which are not always exact repeats. Equal entries are not always repeated.

How the values were obtained:
hA3AR = biological target: T1, hA3AR (Homo sapiens, UniProt P0DMS8); test: Displacement of specific [3H]HEMADO binding at hA3AR expressed in CHO cells; conditions: for Ki: [3H]-HEMADO displacement, CHO cells, n = 3–6, read-out: Ki hA3 (95% CI); for selectivity hA1/A3: ratio of Ki hA1 to Ki hA3; for selectivity hA2A/A3: ratio of Ki hA2A to Ki hA3 as headed
T1 construct: expressed in transfected cells; host or cells: CHO cells (membrane preparation)
T1 sequence (P0DMS8 1-318): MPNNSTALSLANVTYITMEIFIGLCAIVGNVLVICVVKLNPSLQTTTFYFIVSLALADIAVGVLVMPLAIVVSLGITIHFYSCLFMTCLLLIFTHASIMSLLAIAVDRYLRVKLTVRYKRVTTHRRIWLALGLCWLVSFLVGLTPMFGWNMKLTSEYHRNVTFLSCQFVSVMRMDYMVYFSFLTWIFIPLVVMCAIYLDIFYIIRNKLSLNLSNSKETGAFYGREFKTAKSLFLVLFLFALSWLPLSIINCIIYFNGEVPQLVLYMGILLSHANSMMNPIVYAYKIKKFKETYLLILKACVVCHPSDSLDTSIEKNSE
Protocol: The human A1, A2A, A2B, and A3ARs were transfected in CHO cells based on the previously reported method [47–50]. The cells were grown adherently and maintained in Dulbecco's modified Eagle's medium with nutrient mixture F12 (DMEM/F12) without nucleosides, containing 10% foetal calf serum, streptomycin (100 µg ml^−1), penicillin (100 µg ml^−1), L-glutamine (2 mM) and Geneticin (G418, 0.2 mg ml^−1) at 37°C in 5% CO2, 95% air. The membrane preparation was initiated by removal of culture medium followed by washing of the cells with phosphate buffered saline and scraped off T75 flasks in ice-cold hypotonic buffer (5 mM Tris–HCl, 2 mM EDTA, pH7.4). Then the cell suspension was homogenized with a polytron, and the homogenate was centrifuged for 10 min at 1000 g. The supernatant was then centrifuged for 30 min at 100 000 g. The membrane pellet was suspended in (i) 50 mM Tris–HCl buffer, pH 7.4, for A1ARs; (ii) 50 mM Tris–HCl, 10 mM MgCl2 buffer, pH 7.4, for A2AARs; and (iii) 50 mM Tris–HCl, 10 mM MgCl2, 1 mM EDTA buffer, pH 7.4, for A3ARs. The cell suspension was incubated with adenosine deaminase for 30 min at 37°C. Then the membrane preparation was used for binding experiments.
For radioligand binding at A1 ARs 1 nM [3H] CCPA was used, whereas 30 nM of [3H] NECA were used for A2A and 10 nM of [3H]- HEMADO were used for A3 receptors, respectively [47–50]. Nonspecific binding of [3H]CCPA was determined in the presence of 1 mM theophylline, when [3H]NECA 100 µM R-PIA was used.
Inhibitory binding constants, Ki, were calculated from the IC50 values according to the Cheng and Prusoff equation Ki = IC50/(1 + [C*]/KD*), where [C*] is the concentration of the radioligand and KD* its dissociation constant [49, 50]. A weighted nonlinear least-squares curve fitting program LIGAND was also used for computer analysis of inhibition experiments. […] All experimental data are expressed as geometric mean with 95% confidence limits in parentheses of three or four independent experiments performed in duplicate.

hA2AAR = biological target: T2, hA2AAR (Homo sapiens, UniProt P29274); test: Displacement of specific [3H]NECA binding at hA2AAR expressed in CHO cells; conditions: [3H]-NECA displacement, n = 3–6, read-out: Ki hA2A (95% CI)
T2 construct: expressed in transfected cells; host or cells: CHO cells (membrane preparation)
Text: (§1) The receptor binding affinities of the synthesized benzothiazolylquinoline derivatives (6a-l) are recapitulated in table 2. The binding affinity of the antagonist was estimated by measuring the displacement of selective radioligands which were formerly bound to the receptor expressed (Chinese hamster ovary cells (CHO) for hA1AR, hA2AAR and hA3AR) at the surface of the cell. In this particular assay, the displacement of: (i) specific [3H] CCPA (2-chloro-N(6)-cyclopentyladenosine) binding at hA1AR, (ii) specific [3H] NECA (5'-N-ethylcarboxamidoadenosine) binding at the hA2AAR, and (iii) [3H] HEMADO (2-(1-hexynyl)-N^6-methyladenosine) at the hA3AR were evaluated. […] Ki (dissociation constant) value of the data was calculated using the Cheng and Prusoff equation [49], with geometric means of at least three experiments including 95% confidence intervals. […] Selectivity of this compound at hA3 with respect to hA1 and hA2 has also been reduced to some extent.
(§2) The human A1, A2A, A2B, and A3ARs were transfected in CHO cells based on the previously reported method. The cells were grown adherently and maintained in Dulbecco's modified Eagle's medium with nutrient mixture F12 (DMEM/F12) without nucleosides, containing 10% foetal calf serum, streptomycin (100 µg ml^−1), penicillin (100 µg ml^−1), L-glutamine (2 mM) and Geneticin (G418, 0.2 mg ml^−1) at 37°C in 5% CO2, 95% air. The membrane preparation was initiated by removal of culture medium followed by washing of the cells with phosphate buffered saline and scraped off T75 flasks in ice-cold hypotonic buffer (5 mM Tris–HCl, 2 mM EDTA, pH7.4). Then the cell suspension was homogenized with a polytron, and the homogenate was centrifuged for 10 min at 1000 g. The supernatant was then centrifuged for 30 min at 100 000 g. The membrane pellet was suspended in (i) 50 mM Tris–HCl buffer, pH 7.4, for A1ARs; (ii) 50 mM Tris–HCl, 10 mM MgCl2 buffer, pH 7.4, for A2AARs; and (iii) 50 mM Tris–HCl, 10 mM MgCl2, 1 mM EDTA buffer, pH 7.4, for A3ARs. The cell suspension was incubated with adenosine deaminase for 30 min at 37°C. Then the membrane preparation was used for binding experiments.
(§3) For radioligand binding at A1 ARs 1 nM [3H] CCPA was used, whereas 30 nM of [3H] NECA were used for A2A and 10 nM of [3H]- HEMADO were used for A3 receptors, respectively. Nonspecific binding of [3H]CCPA was determined in the presence of 1 mM theophylline, when [3H]NECA 100 µM R-PIA was used.
(§4) Inhibitory binding constants, Ki, were calculated from the IC50 values according to the Cheng and Prusoff equation Ki = IC50/(1 + [C*]/KD*), where [C*] is the concentration of the radioligand and KD* its dissociation constant. A weighted nonlinear least-squares curve fitting program LIGAND was also used for computer analysis of inhibition experiments. Potency values (IC50) obtained in cyclic AMP assays were calculated by nonlinear regression analysis using the equation for a sigmoid concentration–response curve (Graph Pad Prism, San Diego, CA, USA). All experimental data are expressed as geometric mean with 95% confidence limits in parentheses of three or four independent experiments performed in duplicate.

hA1AR = biological target: T3, hA1AR (Homo sapiens, UniProt P30542); test: Displacement of specific [3H]CCPA binding at hA1AR expressed in CHO cells; conditions: [3H]-CCPA displacement, n = 3–6, read-out: Ki hA1 (95% CI)
T3 sequence (P30542 1-326): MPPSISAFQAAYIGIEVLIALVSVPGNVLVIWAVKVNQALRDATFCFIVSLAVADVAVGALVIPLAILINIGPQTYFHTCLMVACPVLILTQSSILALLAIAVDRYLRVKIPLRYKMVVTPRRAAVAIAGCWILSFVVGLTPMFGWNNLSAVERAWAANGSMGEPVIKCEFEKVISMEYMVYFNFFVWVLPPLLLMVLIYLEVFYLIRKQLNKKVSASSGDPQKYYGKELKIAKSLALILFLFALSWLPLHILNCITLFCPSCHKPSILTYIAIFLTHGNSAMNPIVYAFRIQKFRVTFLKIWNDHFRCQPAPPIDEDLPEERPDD
Text: as §1, §2, §3, §4

hA2BAR = biological target: T4, hA2BAR (Homo sapiens, UniProt P29275); test: Inhibition of NECA-stimulated adenylyl cyclase activity in CHO cells expressing hA2BAR; format: biochemical; conditions: read-out: Ki hA2B (95% CI)
T4 construct: expressed in transfected cells; host or cells: CHO cells (crude membrane pellet)
T4 sequence (P29275 1-332): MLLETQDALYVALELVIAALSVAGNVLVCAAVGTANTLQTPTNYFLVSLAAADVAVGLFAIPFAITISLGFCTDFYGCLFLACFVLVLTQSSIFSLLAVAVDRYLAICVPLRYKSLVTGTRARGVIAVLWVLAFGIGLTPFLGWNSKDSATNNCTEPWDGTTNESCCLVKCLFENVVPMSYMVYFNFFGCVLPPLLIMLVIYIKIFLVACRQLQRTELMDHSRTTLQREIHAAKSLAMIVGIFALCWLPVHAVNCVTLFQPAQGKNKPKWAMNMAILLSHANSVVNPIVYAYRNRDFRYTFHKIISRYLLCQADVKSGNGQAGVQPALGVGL
Protocol: as §2
The potency of antagonists at the A2BAR was determined in adenylyl cyclase experiments. For the measurement of adenylyl cyclase activity, only one high speed centrifugation of the homogenate was used. The resulting crude membrane pellet was resuspended in 50 mM Tris–HCl, pH 7.4 and immediately used for the cyclase assay.
as §4

T2 sequence (P29274 whole entry): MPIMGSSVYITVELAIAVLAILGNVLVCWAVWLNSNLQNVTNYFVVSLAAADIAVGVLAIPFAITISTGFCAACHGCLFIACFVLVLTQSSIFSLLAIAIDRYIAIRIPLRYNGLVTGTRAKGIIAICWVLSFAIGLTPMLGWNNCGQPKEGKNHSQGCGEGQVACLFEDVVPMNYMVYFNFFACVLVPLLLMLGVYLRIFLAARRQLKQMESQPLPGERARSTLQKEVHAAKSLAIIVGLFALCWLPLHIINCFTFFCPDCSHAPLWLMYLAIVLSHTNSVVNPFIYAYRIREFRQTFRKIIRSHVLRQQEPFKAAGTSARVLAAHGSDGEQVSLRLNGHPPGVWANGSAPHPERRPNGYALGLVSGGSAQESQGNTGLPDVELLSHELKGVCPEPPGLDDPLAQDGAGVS

Structure (SMILES) | Ki (hA3AR) | Ki (hA2AAR) | Ki (hA1AR) | Ki (hA2BAR) | selectivity hA1/A3 (hA3AR) | selectivity hA2A/A3 (hA3AR) | melting point
c1ccc(-c2nc3ccccc3s2)c(OCCCOc2cccc3cccnc23)c1 [Compound 6e] | 3.8 µM | > 20 µM | > 100 µM | > 30 µM | – | – | –
Clc1ccc(OCCCCOc2ccccc2-c2nc3ccccc3s2)c2ncccc12 [Compound 6k] | 3.7 µM | > 20 µM | > 100 µM | > 10 µM | – | – | –
Clc1cc(I)c(OCCCOc2ccccc2-c2nc3ccccc3s2)c2ncccc12 [Compound 6h] | 6.1 µM | > 20 µM | > 100 µM | > 20 µM | – | – | –
Brc1cc(Br)c2cccnc2c1OCCCCOc1ccccc1-c1nc2ccccc2s1 [Compound 6j] | 6.4 µM | > 20 µM | > 100 µM | > 20 µM | – | – | –
Clc1cc(I)c(OCCCCOc2ccccc2-c2nc3ccccc3s2)c2ncccc12 [Compound 6l] | 3.6 µM | > 20 µM | > 100 µM | > 30 µM | – | – | –
Clc1ccc(OCCCOc2ccccc2-c2nc3ccccc3s2)c2ncccc12 [Compound 6g] | 4.2 µM | > 20 µM | > 100 µM | > 20 µM | – | – | –
c1ccc(-c2nc3ccccc3s2)c(OCCCCOc2cccc3cccnc23)c1 [Compound 6i] | 25.4 µM | 34.9 µM | 29.7 µM | > 20 µM | – | – | –
c1ccc(-c2nc3ccccc3s2)c(OCCOc2cccc3cccnc23)c1 [Compound 6a] | ~2.6 µM and 2.6 µM | 23.8 µM | > 100 µM | > 30 µM | – | – | –
Clc1ccc(OCCOc2ccccc2-c2nc3ccccc3s2)c2ncccc12 [Compound 6c] | 30.4 µM | 32.8 µM | 30.8 µM | > 20 µM | – | – | –
Brc1cc(Br)c2cccnc2c1OCCOc1ccccc1-c1nc2ccccc2s1 [Compound 6b] | 3.2 µM | 17.2 µM | > 100 µM | > 20 µM | >31.25 | >6.25 | 110 to 112 °C
Clc1cc(I)c(OCCOc2ccccc2-c2nc3ccccc3s2)c2ncccc12 [Compound 6d] | 5.6 µM | > 20 µM | > 100 µM | > 20 µM | >17.85 | >3.57 | 125 to 127 °C
Brc1cc(Br)c2cccnc2c1OCCCOc1ccccc1-c1nc2ccccc2s1 [Compound 6f] | 6.2 µM | > 20 µM | > 100 µM | > 30 µM | – | – | –
